For data set [1], the system named is MA 17/C. The note with it: mouse, in vivo, iv, 40.3 mg/kg. On the procedure:
(§1) log10 cells killed=T−C(days)/3.32×Td
(§2) The animals are autopsied when sacrificed.
(§3) The tumor model used to evaluate each drug combination was selected, in general, on the basis of its responsiveness to each of the agents when used as monotherapy. Using i.v. intermittent schedules, full dose response trials were conducted for each single agent and each combination.
(§4) In addition to the parameters described above, the combination toxicity index (CTI) was determined. […] Rep. 66: 1187-1200 (1982). […] It indicates the extent in host toxicity overlap.

The subject of data set [2] is C38 colon adenocarcinoma. To be noted: optimum dose, i.v., days 21,25,29,33: Taxotere 22 mg/kg/inj; 5-fluorouracil 43.4; combination Taxotere 17.6 + 5-fluorouracil 27.0 (simultaneous).
Description: as §1, §2

Data set [3] relates to MA13/c mammary adenocarcinoma. To be noted: optimum dose, i.v.: Taxotere 15 mg/kg/inj days 14,17,20; cyclophosphamide 118 mg/kg day 14; combination Taxotere 7.5 + cyclophosphamide 90.0 mg/kg/inj.
Description: This efficacy may be quantified, for example, by the log10 cells killed, which is determined according to the following formula:
A product is considered to be active if log10 cells killed is greater than or equal to 0.7. A product is considered to be very active if log10 cells killed is greater than 2.8.
The combination, used at its own maximum tolerated dose, in which each of the constituents will be present at a dose generally not exceeding its maximum tolerated dose, will manifest therapeutic synergy when the log10 cells killed is greater than the value of the log10 cells killed of the best constituent when it is administered alone.
The efficacy of the combinations on solid tumors may be determined experimentally in the following manner:
The animals subjected to the experiment, generally mice, are subcutaneously grafted bilaterally with 30 to 60 mg of a tumor fragment on day 0. The animals bearing tumors are mixed before being subjected to the various treatments and controls. […]
The tumors are measured 2 or 3 times a week until the tumor reaches approximately 2 g, or until the animal dies if this occurs before the tumor reaches 2 g. […]
The antitumor activity is determined in accordance with the different parameters recorded.
In data set [4] the test system is Colon 51. To be noted: for Responses TFS (tumor free survivors): on day 122. On the procedure: as §1, §2, §3, §4
Data set [5] concerns MA13/C. To be noted: mouse, in vivo. On the procedure: as §1, §2, §3, §4
Where [6] appears, read: CPT-11 trial: CPT-11 PO 42.5 mg/kg/inj 5,9 2x/d, acetocyclopropyl taxotere IV 21.1 days 5,9, combination 21.0 + 11.9 simult.
[7] abbreviates: cisplatin trial, days 5,12: acetocyclopropyl taxotere 30.0 mg/kg/inj IV, cisplatinum 3.1, combination 13.6 + 2.0 simult.

Read-outs that look alike come from different tables or passages of the source.

`CCC1=C[C@@H]2CN(C1)Cc1c([nH]c3ccccc13)[C@@](C(=O)OC)(c1cc3c(cc1OC)N(C)[C@H]1[C@@](O)(C(=O)OC)[C@H](OC(C)=O)[C@]4(CC)C=CCN5CC[C@]31[C@@H]54)C2` [Navelbine]: in data set [1], the “Responses TFS (tumor free survivors)” value is recorded as 0/6, the T/C % amounted to 0% and the log cell kill is on record as 5.5.
Consider `O=c1[nH]cc(F)c(=O)[nH]1` [5-fluorouracil], for which the log10 cells killed in data set [2] is recorded as 1.1.
Regarding `O=P1(N(CCCl)CCCl)NCCCO1` (centres unmarked) [Cylcophosphamide, cyclophosphamide], the log10 cells killed in data set [3] was found to be 1.3.
`CCc1c2c(nc3ccc(OC(=O)N4CCC(N5CCCCC5)CC4)cc13)-c1cc3c(c(=O)n1C2)COC(=O)[C@]3(O)CC` [CPT-11]: in data set [4] (setting [6]), the “% bwl loss at nadir” value was determined as 3.7%, the T/C % is reported as 0% and the “day of nadir (body weight loss)” value is listed as “(7) day”. Moreover, in data set [4] (CPT-11 trial: CPT-11 PO 42.5 mg/kg/inj 5,9 2x/d, acetocyclopropyl taxotere IV 21.1 days 5,9, combination 21.0 + 11.9 simult., Td = 2 days), the log cell kill is 1.1.
In the case of `COc1cccc2c1C(=O)c1c(O)c3c(c(O)c1C2=O)C[C@@](O)(C(=O)CO)C[C@@H]3O[C@H]1C[C@H](N)[C@H](O)[C@H](C)O1` [Doxorubicin, doxorubicin], in data set [5], the “Responses CR (Complete Response)” value is on record as 3/5 and the log cell kill was found to be 3.0.
For the compound `N.N.[Cl][Pt][Cl]` [Cisplatinum, cisplatin], the T/C % in data set [4] (setting [7]) worked out at 0%. Besides, the log cell kill in data set [4] (cisplatin trial, days 5,12: acetocyclopropyl taxotere 30.0 mg/kg/inj IV, cisplatinum 3.1, combination 13.6 + 2.0 simult., Td = 2.5 days) is 2.7. Further, the “Responses TFS (tumor free survivors)” value is listed as 0/7 in data set [4] (setting [7]) and “no tumor free survivors” in data set [4] (cisplatin trial, days 5,12: acetocyclopropyl taxotere 30.0 mg/kg/inj IV, cisplatinum 3.1, combination 13.6 + 2.0 simult., listed as cisplatin).
With `CC(=O)O[C@@]12CO[C@@H]1C[C@H](O)[C@@]1(C)C(=O)[C@H](O)C3=C(C)[C@@H](OC(=O)[C@H](O)[C@@H](NC(=O)OC(C)(C)C)c4ccccc4)C[C@@](O)([C@@H](OC(=O)c4ccccc4)[C@H]21)C3(C)C` [Taxotere], the log10 cells killed in data set [3] was determined as 2.8; in data set [2] it was 1.4.
